Measured values taken from US12617752B2, “Rapidly metabolized lipid compound” (Beijing Jitai Life Sciences Ltd, priority 2023, dated 2026).

Columns and labels:
[1] = Particle size and PDI of lipid nanoparticles by dynamic light scattering; format: physicochemical; conditions: lipid nanoparticles with luciferase mRNA; ionizable lipid/cholesterol/DSPC/DMG-PEG2000 50/38.5/10/1.5 mol%
Method in brief: (§1)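 LNPs of ionizable lipid/cholesterol/phospholipid/PEG-lipid (50/38.5/10/1.5 mol%, N/P 6) were formed by microfluidic mixing with mRNA in pH 4.5 acetate, then buffer-exchanged by ultrafiltration. Size and PDI were measured by DLS. Encapsulation came from RiboGreen fluorescence (485/528 nm) in TE pH 7.5, with and without 0.5% Triton at 37 °C for 30 min.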

[2] = Encapsulation efficiency of lipid nanoparticles (Quant-it RiboGreen RNA Assay); format: physicochemical; conditions: lipid nanoparticles with luciferase mRNA
Method in brief: as §1

C57BL/6 mice = test: In vivo delivery of luciferase mRNA lipid nanoparticles in mice (bioluminescence imaging); conditions: intravenous, single dose 0.5 mg/kg luciferase mRNA
Method in brief: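 Female C57BL/6 mice, 6-8 weeks old, received luciferase mRNA lipid nanoparticles as a single intravenous dose of 0.5 mg/kg mRNA. At 6 h, D-luciferin given intraperitoneally; 10 min later, mice were imaged under isoflurane anaesthesia. Values are group mean fluorescence intensity and total photon count.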

SMILES	Particle size (nm) [1]	Particle-size distribution (PDI) [1]	Encapsulation efficiency (%) [2]	Total photon count in vivo at 6 hours after administration (Total Flux) (C57BL/6 mice)
CCCCCCCCCCC(=O)OCC(C)(C)CCCCCN(CCCCO)CCCCCCCC(=O)OC(CCCCCCCCC)CCCCCCCCC [17b]	109.87 nm	0.030	87.72%	1.74E+11
CCCCCCCCCCOC(=O)CCCC(C)(C)CCN(CCO)CCCCCCCC(=O)OCCC(CCCCCC)CCCCCC [28a]	110.30 nm	0.018	93.90%	4.30E+10
CCCCCCCCCCC(=O)OCCC(C)(C)CCCCN(CCO)CCCCCCCC(=O)OC(CCCCCCCCC)CCCCCCCCC [54b]	81.37 nm	0.17	96.69%	5.71E+10
CCCCCCCCCCCOC(=O)OCCCCN(CCO)CCCCCCC(C)(C)C(=O)OCC(CCCCCCC)CCCCCCC [37a]	110.67 nm	0.15	92.14%	3.54E+10
CCCCCCCC(CCCCCCC)CCOC(=O)OCCCCCCN(CCO)CCCCCC(C)(C)COC(=O)CCC(CCCCCC)CCCCCC [37b]	83.72 nm	0.16	95.15%	3.72E+10
CCCCCCCCCCOC(=O)CCCCC(C)(C)CCN(CCCCO)CCCCCCCC(=O)OC(CCCCCCCCC)CCCCCCCCC [67a]	111.33 nm	0.06	91.57%	6.07E+10
CCCCCCCCCOC(=O)CCC(C)(C)CCCCN(CCO)CCCCCCOC(=O)OCC(CCCCCCC)CCCCCCC [46a]	110.83 nm	0.16	93.03%	9.06E+10
CCCCCCCCC(CCCCCCCC)OC(=O)C(C)(C)CCCCCCN(CCO)CCCCCC(=O)OCCCCCCCCCC(C)C [21a]	110.00 nm	0.016	88.37%	8.84E+10
CCCCCCCCCCC(=O)OCCCCC(C)(C)CCN(CCO)CCCCCCCC(=O)OCCC(CCCCCCC)CCCCCCC [72b]	92.45 nm	0.12	95.13%	7.01E+10
CCCCCCCCCCC(=O)OCC(C)(C)CCCCCN(CCCCO)CCCCCCCC(=O)OCCCC(CCCCCC)CCCCCC [63b]	165.53 nm	0.09	84.27%	2.72E+10
CCCCCCCCCCCOC(=O)CCCCCN(CCO)CCCCCC(C)(C)CC(=O)OC(CCCCCCCC)CCCCCCCC [19a]	109.37 nm	0.035	87.90%	4.73E+10
CCCCCCCC(CCCCCCC)COC(=O)CCCCCCCN(CCO)CCCCCC(C)(C)COC(=O)CC(CCCCCCC)CCCCCCC [65b]	80.60 nm	0.16	97.75%	1.25E+11
CCCCCCCCCCOC(=O)CCCCCCCN(CCO)CCCCCC(C)(C)COC(=O)CCC(CCCCCC)CCCCCC [20b]	107.83 nm	0.032	87.69%	4.82E+10
CCCCCCCCCC(=O)OCC(C)(C)CCCCCN(CCO)CCCCCCC(=O)OCC(CCCCCCCC)CCCCCCCC [67b]	88.28 nm	0.23	96.30%	1.71E+11
CCCCCCCCCC(=O)OCC1(CCCCCN(CCCCCCCC(=O)OCC(CCCCCCC)CCCCCCC)C(=O)SCCCCN(C)C)CC1 [44b]	92.63 nm	0.15	97.45%	1.16E+10
CCCCCCCCCCC(=O)OCCC(C)(C)CCCCN(CCCO)CCCCCCCC(=O)OCC(CCCCCCCC)CCCCCCCC [100b]	101.50 nm	0.12	91.14%	8.51E+10
CCCCCCCCCCCOC(=O)CCCCCN(CCO)CCCCCCC1(C(=O)OC(CCCCCCCC)CCCCCCCC)CC1 [13a]	110.20 nm	0.018	92.96%	5.01E+10

SMILES	Particle size (nm) [1]	Particle-size distribution (PDI) [1]	Encapsulation efficiency (%) [2]	Total photon count in vivo at 6 hours after administration (Total Flux) (C57BL/6 mice)
CCCCCCCCCCCC(=O)OCC(C)(C)CCCCCN(CCCCO)CCCCCCC(=O)OCC(CCCCCCCCCC)CCCCCCCCCC [91b]	96.43 nm	0.12	91.95%	8.66E+10
CCCCCCCCCOC(=O)CCCCC(C)(C)CCN(CCO)CCCCCCCC(=O)OC(CCCCCCCC)CCCCCCCC [25a]	86.99 nm	0.051	95.62%	1.33E+11
CCCCCCCCCC(=O)OCC(C)(C)CCCCCN(CCCO)CCCCCCC(=O)OCC(CCCCCCCC)CCCCCCCC [76b]	91.27 nm	0.18	94.97%	9.41E+10
CCCCCCCCCCCOC(=O)CCCCCN(CCO)CCCCCCC(C)(C)C(=O)OCCC(CCCCCC)CCCCCC [15a]	95.94 nm	0.021	90.77%	4.15E+10
CCCCCCCCCCC(=O)OCC(C)(C)CCCCCN(CCO)CCCCCCCCC(=O)OCC(CCCCCCC)CCCCCCC [87b]	92.25 nm	0.22	94.16%	1.35E+11
CCCCCCCCCCC(=O)OCCCC(C)(C)CCCN(CCCCO)CCCCCCCCC(=O)OCC(CCCCCCC)CCCCCCC [116b]	120.13 nm	0.09	90.71%	1.96E+10
CCCCCCCCCOC(=O)OCCCCCCCN(CCCCO)CCCCCC(C)(C)COC(=O)CC(CCCCCCC)CCCCCCC [32b]	116.50 nm	0.16	95.31%	3.52E+10
CCCCCCCCCCC(=O)OCCCC(C)(C)CCCN(CCO)CCCCCCCCC(=O)OCC(CCCCCCC)CCCCCCC [96b]	97.75 nm	0.15	92.10%	3.77E+10
CCCCCCCCCC(=O)OCC1(CCCCCN(CCCCO)CCCCCCCC(=O)OC(CCCCCCCC)CCCCCCCC)CC1 [15b]	120.27 nm	0.015	69.69%	8.22E+10
CCCCCCCCC(CCCCCCCC)OC(=O)C(C)(C)CCCCCCN(CCO)CCCCCCCOC(=O)CCCC(CCCCC)CCCCC [7b]	101.67 nm	0.030	88.68%	2.00E+10
CCCCCCCCCOC(=O)CCCCC(C)(C)CCN(CCCCCCCC(=O)OCC(CCCCCCC)CCCCCCC)C(=O)SCCCN(C)C [61a]	111.90 nm	0.09	95.87%	1.32E+10
CCCCCCCCCC(=O)OCCCCCCCN(CCO)CCCCC(C)(C)COC(=O)OCC(CCCCCCC)CCCCCCC [25b]	94.39 nm	0.15	95.59%	1.11E+11
CCCCCCCCCCCOC(=O)OCCCCCN(CCCCO)CCCCCC(C)(C)COC(=O)CC(CCCCCCC)CCCCCCC [31b]	118.73 nm	0.07	95.73%	1.87E+10
CCCCCCCCCC(=O)OCCC(C)(C)CCCCCN(CCO)CCCCCCC(=O)OCCC(CCCCCCCC)CCCCCCCC [108b]	86.61 nm	0.16	94.16%	1.38E+11
CCCCCCCCCCCOC(=O)CCCCCN(CCCO)CCCCCCC(C)(C)C(=O)OC(CCCCCCCC)CCCCCCCC [11a]	98.01 nm	0.021	89.36%	2.05E+10
CCCCCCCCCC(=O)OCC1(CCCCCN(CCO)CCCCCCOC(=O)OCC(CCCCCCCC)CCCCCCCC)CC1 [34b]	85.20 nm	0.19	97.61%	2.78E+10
